In patent US8481459B2, “Chemical inhibitors of ethylene biosynthesis” (Academia Sinica, priority 2010, dated 2013):

Tests used:
[1] = system: etiolated eto1-4 seedlings; assay: Triple response phenotype / hypocotyl length of etiolated eto1-4 seedlings; type: in vivo, Arabidopsis thaliana; details: 10 μM; etiolated eto1-4; FIG. 3
Description: All mutants and transgenic plants were derived from the wild-type Arabidopsis thaliana Columbia ecotype (Col-0) and cultivated under a long-day condition (16-h light/8-h dark at 22° C.) under exemplary e light (100-150 μE m^−2 s^−1). A reporter construct, 5×EBS::LUC (a generous gift from Drs. Hai Li and Anna N. Stepanova, Salk Institute, USA), containing 5 copies of EIN3 binding sequence (EBS) fused with luciferase gene (LUC) was transformed to eto1-4 and subsequently used for screening compounds of a chemical library. Ethylene mutants eto1-4, eto2-1, ctr1-1 and the EIN3 overexpression line (35S::EIN3) were described previously (Solano, et al. (1998) Genes Dev 12, 3703-3714). Seeds were sterilized with 30% bleach for 6 min and sown in half-strength Murashige and Skoog (0.5×MS) medium supplemented with 0.8% agar and stratified in the dark at 4° C. for 3-4 days before germination. For analysis of the triple response phenotype, stratified seeds were grown in the dark at 22° C. for 3 days before scoring the phenotype.
A DIVERSet library (ChemBridge Inc.) containing 10,000 small molecules (in DMSO) was used for chemical screening. Three rounds of chemical screenings were carried out in 0.5×MS agar medium containing individual chemicals in each well of 96- and 24-well micro-titer plates. The initial screening was performed by sowing 10 to 15 seeds in the wells of micro-titer plates containing small molecules at 50 μM to score the long-hypocotyl phenotype. For the second and third screenings, we used 25 μM of small molecules selected from the first round of screening to score and confirm the phenotype. The seedling phenotype was scored by use of a digital camera attached to a Zeiss stereomicroscope (SteREO V8), and quantitation of hypocotyl length was performed by use of NIH Image J software. AVG and silver thiosulfate (STS, by mixing silver nitrate and sodium thiosulfate at a 1:4 molar ratio immediately before use) were obtained from Sigma and used as controls to suppress ethylene biosynthesis and perception, respectively. Agar medium was supplemented with 1-aminocyclopropane-1-carboxylic acid (10 μM, Merck) to induce the triple response in etiolated seedlings.
Shortened hypocotyls in etiolated seedlings is one of the triple response phenotypes (Guzman, et al. (1990) Plant Cell 2, 513-523; Wang, et al. (2004) Nature 428, 945-950). Two chemical compounds negating ethylene response, AVG and STS, were included as a control for comparison.

[2] = system: 5×EBS::LUC reporter (EIN3 binding sequence) in eto1-4; assay: Luciferase activity of 5×EBS::LUC reporter in eto1-4 seedlings; type: in vivo, Arabidopsis thaliana; details: 10 μM
Description: For live imaging of luciferase activity, plants were first grown in the dark at 22° C. for 3 days, then under exemplary e light for 3 more days before the luciference of seedlings was imaged. Six-day-old seedlings were sprayed with luciferin (2 μM, Biosynth International Inc.) and kept in the dark for 5 min before collecting images by the Xenogen IVIS System (Caliper Life Sciences, Inc.). For quantitative assay of luciferase activity, the etiolated seedlings mentioned above were transferred to exemplary e micro-titer plates (Packard Optiplate-96, Perkin Elmer Inc.) for an additional 3 days under exemplary e light in 0.5×MS solution. The luciferase activity of seedlings was quantitated by use of a microplate reader (CHAMELEON, Hidex Inc.) in the presence of 2 μM luciferin.
To confirm the suppression of the eto1-4 phenotype resulting from disruption of the ethylene response, the following assays were performed. First, luciferase activity was analyzed with a transgenic reporter line harboring 5 copies of a synthetic promoter fusion with a luciferase gene (LUC), 5×EBS::LUC, in the eto1-4 background.

| Compound | ranking in both hypocotyl length and ethylene level assays [1] | luciferase activity of 5×EBS::LUC in eto1-4 [2] |
| --- | --- | --- |
| CC1CC(=O)c2cnc(Nc3ccccc3)nc2C1 (centres unmarked) [Compound 2305] | most effective | – |
| CCCCNc1ncc2c(n1)CC(c1ccccc1)CC2=O (centres unmarked) [Compound 2616] | most effective | – |
| O=C1CC(c2ccccc2Cl)Cc2nc(NC3CCCC3)ncc21 (centres unmarked) [Compound 8107] | most effective | – |
| CC1(C)CC(=O)c2cnc(Nc3ccccc3)nc2C1 [Compound 9028] | most effective | – |
| silver thiosulfate [STS] | – | suppressed |
